Assay results: patent publication EP4786487A1, “PEPTIDE” (Peptidream Inc, priority 2023, dated 2025)
Like-named read-outs stand apart in the source and are kept apart here. Starred links: 1 amine or outer side, 2 acyl side, 3 side chain; linkers in the order of their positions; H or OH if unused. Positions of bridges follow the written chain, without caps; N, C: chain ends. Non-standard residues stand in square brackets, D forms with d. Residues, ends and D or L forms follow the SMILES beside them. *: point of attachment. Ala(1-CH2CO2H-4-piperidyl) = N[C@@H](CC1CCN(CC(=O)O)CC1)C(=O)O; Phe(3-OCH2COOH) = N[C@@H](Cc1cccc(OCC(=O)O)c1)C(=O)O; Trp(1-Ph) = N[C@@H](Cc1cn(-c2ccccc2)c2ccccc12)C(=O)O; Trp(6-OH) = N[C@@H](Cc1c[nH]c2cc(O)ccc12)C(=O)O; Phe(4-COOH) = N[C@@H](Cc1ccc(C(=O)O)cc1)C(=O)O; Trp(7-aza) = N[C@@H](Cc1c[nH]c2ncccc12)C(=O)O; Piperazinyl(4-CH2COOH) = O=C(O)CN1CCN(*)CC1; Piperidinyl(4-CH2COOH) = O=C(O)CC1CCN(*)CC1; Gly(decyl) = CCCCCCCCCC[C@H](N)C(=O)O; Gly(N(CH2)3COOH) = O=C(O)CCCNCC(=O)O; X1 = CCCCCCC[C@H](N[*:1])C(=O)[*:2]; NMeF = CN[C@@H](Cc1ccccc1)C(=O)O; 4Pal = N[C@@H](Cc1ccncc1)C(=O)O; NMeE = CN[C@@H](CCC(=O)O)C(=O)O; Cha = N[C@@H](CC1CCCCC1)C(=O)O; NMeA = CN[C@@H](C)C(=O)O; NPrGly = CCCNCC(=O)O; Sar = CNCC(=O)O

Experiments:
GDF-11 = target: T1, GDF-11 (Homo sapiens, UniProt O95390); assay: HepG2 reporter gene assay, Evaluation Procedure (2): 2-concentrations assay, GDF-11 inhibition; type: cell-based; conditions: for inhibition at 0.03 µM: HepG2, peptide 30nM, read-out: GDF11 Inhibition 30nM; for inhibition at 0.03 µM / inhibition at 0.1 µM: GDF-11 10 ng/mL; for inhibition at 0.1 µM: HepG2, peptide 100nM, read-out: GDF11 Inhibition 100nM; for inhibition: read-out: inhibition rate (GDF-11 inhibition assay)
T1 construct: purchased R&D systems 1958-GD-G8/CF
T1 sequence (O95390 299-407): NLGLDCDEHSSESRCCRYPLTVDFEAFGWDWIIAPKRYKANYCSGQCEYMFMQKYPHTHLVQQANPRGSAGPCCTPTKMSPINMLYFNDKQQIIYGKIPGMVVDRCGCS
In short: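 HepG2 cells carrying the transfected pGL3(CAGA)12-luc reporter, a pGL3 vector with luciferase placed downstream of 12 CAGA repeats, were stimulated with GDF-11 at a final 10 ng/mL together with test peptide. Blank wells received no GDF-11 and no peptide. Plates were incubated 20 to 24 hours at 37°C with 5% CO2. Luminescence from One-Glo substrate was read to calculate percent inhibition.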

Myostatin = target: T2, Myostatin (Homo sapiens, UniProt O14793); assay: HepG2 reporter gene assay, Evaluation Procedure (2): 2-concentrations assay, myostatin inhibition; type: cell-based; conditions: HepG2
T2 construct: active myostatin (also called mature myostatin) is a homodimer consisting of two C-terminal growth factor domains; purchased R&D systems 788-G8/CF
T2 sequence (O14793 267-375): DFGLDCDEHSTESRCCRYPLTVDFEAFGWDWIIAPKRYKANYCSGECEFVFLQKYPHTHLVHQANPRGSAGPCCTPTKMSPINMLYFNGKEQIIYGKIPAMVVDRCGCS
In short: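 HepG2 cells (HB-8065, ATCC) carrying the transfected pGL3(CAGA)12-luc reporter plasmid were treated with myostatin (788-G8/CF, R&D systems) at a final concentration of 10 ng/mL plus peptide and incubated at 37°C, 5% CO2 for 20 to 24 hours. Luminescence was read after adding PBS mixed 1:1 with One-Glo substrate, and inhibition rate was calculated.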

[1] = peptide 30nM, Myostatin 10 ng/mL, read-out: Myostatin Inhibition 30nM
[2] = peptide 100nM, Myostatin 10 ng/mL, read-out: Myostatin Inhibition 100nM
[3] = HepG2, first GDF-11 column of Table 7-3/7-4, GDF-11 10 ng/mL, peptide at the lower of the 2 concentrations
[4] = HepG2, second GDF-11 column of Table 7-3/7-4, GDF-11 10 ng/mL, peptide at the higher of the 2 concentrations
[5] = Table 7-3/7-4, myostatin 10 ng/mL, peptide at the higher of the 2 concentrations, read-out: inhibition rate (myostatin inhibition assay)
[6] = Table 7-3/7-4, myostatin 10 ng/mL, peptide at the lower of the 2 concentrations, read-out: inhibition rate (myostatin inhibition assay)

SMILES | inhibition at 0.03 µM (GDF-11) | inhibition at 0.1 µM (GDF-11) | inhibition at 0.03 µM (Myostatin; [1]) | inhibition at 0.1 µM (Myostatin; [2]) | inhibition (GDF-11; [3]) | inhibition (GDF-11; [4]) | inhibition at 0.1 µM (Myostatin; [5]) | inhibition at 0.03 µM (Myostatin; [6])
CC[C@H](C)[C@@H]1NC(=O)[C@H](Cc2ccccc2)N(C)C(=O)[C@H](Cc2ccc(O)cc2)NC(=O)[C@H](Cc2c[nH]c3ncccc23)NC(=O)[C@H](C)NC(=O)[C@H](C)NC(=O)CSC[C@H](C(=O)N[C@H](CO)C(=O)N[C@H](CO)C(=O)N[C@H](CO)C(=O)N[C@H](CCCCN)C(=O)O)NC(=O)[C@H](Cc2ccccc2)N(C)C(=O)[C@H](C)N(C)C(=O)[C@H](CC(C)C)NC(=O)[C@H](Cc2ccccc2)N(C)C(=O)[C@H](CCCNC(=N)N)NC(=O)[C@H](Cc2ccc(C(=O)O)cc2)NC(=O)[C@H](Cc2ccccc2)NC(=O)CN(C)C1=O [Myostatin_99_v35] ({CH2CO}-AA[Trp(7-aza)]Y[NMeF]I[Sar]F[Phe(4-COOH)]R[NMeF]L[NMeA][NMeF][dC][dS][dS][dS][dK]-OH; thioether N-15) | 13% | 36% | 95% | 100% |  |  |  | 
CC[C@H](C)[C@@H]1NC(=O)[C@H](Cc2ccccc2)N(C)C(=O)[C@H](Cc2ccc(O)cc2)NC(=O)[C@H](Cc2c[nH]c3ccccc23)NC(=O)[C@H](CCCNC(=N)N)NC(=O)[C@H](C)N(C)C(=O)CSC[C@@H](C(N)=O)NC(=O)[C@H](Cc2ccccc2)N(C)C(=O)[C@H](C)N(C)C(=O)[C@H](CC(C)C)NC(=O)[C@H](Cc2ccccc2)N(C)C(=O)[C@H](CCCNC(=N)N)NC(=O)[C@H](Cc2ccc(O)cc2)NC(=O)[C@H](Cc2ccc(O)cc2)NC(=O)CN(C)C1=O [Myostatin_000099_01meA] ({CH2CO}-[NMeA]RWY[NMeF]I[Sar]YYR[NMeF]L[NMeA][NMeF]C-NH2; thioether N-15) | 0% | 0% | 55% | 82% |  |  |  | 
CCCCCCCCCC[C@@H]1NC(=O)[C@H](CC2CCCCC2)NC(=O)[C@H](CCCNC(=N)N)NC(=O)[C@H](Cc2ccc(C(=O)O)cc2)NC(=O)[C@H](Cc2cccc(OCC(=O)O)c2)NC(=O)[C@H](C)N(C)C(=O)[C@H]([C@@H](C)CC)NC(=O)[C@H](Cc2ccccc2)N(C)C(=O)[C@H](Cc2ccc(O)cc2)NC(=O)[C@H](Cc2cn(-c3ccccc3)c3ccccc23)NC(=O)[C@H](C)NC(=O)[C@H](C)NC(=O)CSC[C@H](C(=O)N2CCN(CC(=O)O)CC2)NC(=O)[C@H](Cc2ccccc2)N(C)C(=O)[C@H](CCC(=O)O)N(C)C1=O [Myostatin_99_v333] ({CH2CO}-AA[Trp(1-Ph)]Y[NMeF]I[NMeA][Phe(3-OCH2COOH)][Phe(4-COOH)]R[Cha][Gly(decyl)][NMeE][NMeF][dC]-{Piperazinyl(4-CH2COOH)}; thioether N-15) |  |  |  |  | 0% | 34% | 100% | 100%
CCCCCCC[C@@H]1NC(=O)[C@H](Cc2ccccc2)N(C)C(=O)[C@H](CCCNC(=N)N)NC(=O)[C@H](Cc2ccc(C(=O)O)cc2)NC(=O)[C@H](Cc2cccc(OCC(=O)O)c2)NC(=O)[C@H](C)N(C)C(=O)[C@H]([C@@H](C)CC)NC(=O)[C@H](Cc2ccccc2)N(C)C(=O)[C@H](Cc2ccc(O)cc2)NC(=O)[C@H](Cc2c[nH]c3cc(O)ccc23)NC(=O)[C@H](C)NC(=O)CN(CCCC(=O)O)C(=O)CSC[C@H](C(=O)O)NC(=O)[C@H](Cc2ccccc2)N(C)C(=O)[C@H](C)N(C)C1=O [Myostatin_99_v318] ({CH2CO}-[Gly(N(CH2)3COOH)]A[Trp(6-OH)]Y[NMeF]I[NMeA][Phe(3-OCH2COOH)][Phe(4-COOH)]R[NMeF][X1][NMeA][NMeF][dC]-OH; thioether N-15) |  |  |  |  | 0% | 19% | 100% | 100%
CCCCCCC[C@@H]1NC(=O)[C@H](Cc2ccccc2)N(C)C(=O)[C@H](CCCNC(=N)N)NC(=O)[C@H](Cc2ccc(C(=O)O)cc2)NC(=O)[C@H](Cc2cccc(OCC(=O)O)c2)NC(=O)[C@H](C)N(C)C(=O)[C@H]([C@@H](C)CC)NC(=O)[C@H](Cc2ccccc2)N(C)C(=O)[C@H](Cc2ccc(O)cc2)NC(=O)[C@H](Cc2c[nH]c3ccccc23)NC(=O)[C@H](C)NC(=O)CN(CCCC(=O)O)C(=O)CSC[C@H](C(=O)N2CCN(CC(=O)O)CC2)NC(=O)[C@H](Cc2ccccc2)N(C)C(=O)[C@H](C)N(C)C1=O [Myostatin_99_v429] ({CH2CO}-[Gly(N(CH2)3COOH)]AWY[NMeF]I[NMeA][Phe(3-OCH2COOH)][Phe(4-COOH)]R[NMeF][X1][NMeA][NMeF][dC]-{Piperazinyl(4-CH2COOH)}; thioether N-15) |  |  |  |  | 0% | 0% | 100% | 100%
CC[C@H](C)[C@@H]1NC(=O)[C@H](Cc2ccccc2)N(C)C(=O)[C@H](Cc2ccc(O)cc2)NC(=O)[C@H](Cc2c[nH]c3ccccc23)NC(=O)[C@H](CCCCN)NC(=O)[C@H](C)NC(=O)CSC[C@@H](C(N)=O)NC(=O)[C@H](Cc2ccccc2)N(C)C(=O)[C@H](C)N(C)C(=O)[C@H](CC(C)C)NC(=O)[C@H](Cc2ccccc2)N(C)C(=O)[C@H](CCCNC(=N)N)NC(=O)[C@H](Cc2ccc(O)cc2)NC(=O)[C@H](Cc2ccc(O)cc2)NC(=O)CN(C)C1=O [Myostatin_000099_02K] ({CH2CO}-AKWY[NMeF]I[Sar]YYR[NMeF]L[NMeA][NMeF]C-NH2; thioether N-15) | 0% | 0% | 35% | 73% |  |  |  | 
CCCCCCC[C@@H]1NC(=O)[C@H](Cc2ccccc2)N(C)C(=O)[C@H](CCCNC(=N)N)NC(=O)[C@H](Cc2ccc(C(=O)O)cc2)NC(=O)[C@H](Cc2ccncc2)NC(=O)CN(C)C(=O)[C@H]([C@@H](C)CC)NC(=O)[C@H](Cc2ccccc2)N(C)C(=O)[C@H](Cc2ccc(O)cc2)NC(=O)[C@H](Cc2c[nH]c3ccccc23)NC(=O)[C@H](C)NC(=O)CN(CCCC(=O)O)C(=O)CSC[C@H](C(=O)N[C@@H](CC2CCN(CC(=O)O)CC2)C(N)=O)NC(=O)[C@H](Cc2ccccc2)N(C)C(=O)[C@H](C)N(C)C1=O [Myostatin_99_v235] ({CH2CO}-[Gly(N(CH2)3COOH)]AWY[NMeF]I[Sar][4Pal][Phe(4-COOH)]R[NMeF][X1][NMeA][NMeF][dC][Ala(1-CH2CO2H-4-piperidyl)]-NH2; thioether N-15) | 0% | 0% | 91% | 99% |  |  |  | 
CC[C@H](C)[C@@H]1NC(=O)[C@H](Cc2ccccc2)N(C)C(=O)[C@H](Cc2ccc(O)cc2)NC(=O)[C@H](Cc2c[nH]c3ccccc23)NC(=O)[C@H](C)NC(=O)[C@H](C)NC(=O)CSC[C@@H](C(N)=O)NC(=O)[C@H](Cc2ccccc2)N(C)C(=O)[C@H](C)N(C)C(=O)[C@H](CC(C)C)NC(=O)[C@H](Cc2ccccc2)N(C)C(=O)[C@H](CCCNC(=N)N)NC(=O)[C@H](Cc2ccc(O)cc2)NC(=O)[C@H](Cc2ccc(O)cc2)NC(=O)CN(C)C1=O [Myostatin_000099_02A] ({CH2CO}-AAWY[NMeF]I[Sar]YYR[NMeF]L[NMeA][NMeF]C-NH2; thioether N-15) | 0% | 5% | 64% | 89% |  |  |  | 
CCCCCCCCCC[C@@H]1NC(=O)[C@H](Cc2ccccc2)N(C)C(=O)[C@H](CCCNC(=N)N)NC(=O)[C@H](Cc2ccc(C(=O)O)cc2)NC(=O)[C@H](Cc2cccc(OCC(=O)O)c2)NC(=O)CN(CCC)C(=O)[C@H]([C@@H](C)CC)NC(=O)[C@H](Cc2ccccc2)N(C)C(=O)[C@H](Cc2ccc(O)cc2)NC(=O)[C@H](Cc2c[nH]c3ccccc23)NC(=O)[C@H](C)NC(=O)[C@H](C)NC(=O)CSC[C@H](C(=O)N2CCC(CC(=O)O)CC2)NC(=O)[C@H](Cc2ccccc2)N(C)C(=O)[C@H](CCC(=O)O)N(C)C1=O [Myostatin_99_v334] ({CH2CO}-AAWY[NMeF]I[NPrGly][Phe(3-OCH2COOH)][Phe(4-COOH)]R[NMeF][Gly(decyl)][NMeE][NMeF][dC]-{Piperidinyl(4-CH2COOH)}; thioether N-15) |  |  |  |  | 0% | 0% | 99% | 90%
